Counter-ions that a name gives are not always drawn.
Columns and labels:
[1] = test system: human gastric cancer Hs746T xenograft tumor; experiment: In vivo drug efficacy, human gastric cancer Hs746T xenograft tumor in nude mice; set-up: species or system BALB/c nude mice; conditions: for TGI (tumor growth inhibition rate) / TRTV/CRTV (relative tumor proliferation rate T/C): after 20 days; for Tumor volume: n = 6
Procedure: BALB/c nude mice, female, 6-8 weeks old, weighing about 18-22 grams, animals were raised in SPF-class animal rooms in IVC (independent air supply system, constant temperature and humidity) cages (3 per cage). All cages, bedding and water were disinfected before use. All animals had free access to standard certified commercial laboratory diets. 0.2 mL (5×10^6 cells) of Hs746T cell suspension (with matrix gel, volume ratio 1:1) was subcutaneously inoculated on the right back of each mouse, and a total of 55 mice were inoculated. When the average tumor volume reached 160 mm^3, a random stratified grouping method was adopted according to the tumor volume and animal body weight to start grouping administration. The test compound was orally administered daily, the two doses of hydrochloride of compound 25 were 3 mg/kg and 6 mg/kg, respectively, and the dose of hydrochloride of compound 39 was 3 mg/kg. The tumor diameter was measured with vernier calipers twice a week. The calculation formula of tumor volume was: V=0.5a×b^2, a and b represented the long diameter and short diameter of the tumor, respectively. The anti-tumor efficacy of the compound was evaluated by TGI (%) or the relative tumor proliferation rate T/C (%). Relative tumor proliferation rate T/C (%)=TRTV/CRTV×100% (TRTV: average RTV in the treatment group; CRTV: average RTV in the negative control group). The relative tumor volume (RTV) was calculated according to the results of tumor measurement, the calculation formula was RTV=Vt/V0, wherein V0 was the tumor volume measured at the time of the grouping administration (i.e. D0), Vt was the tumor volume of the mice at a certain measurement, and TRTV and CRTV were taken on the same day. TGI (%) reflected the tumor growth inhibition rate. TGI (%)=[(1−(average tumor volume of a certain treatment group after administration-average tumor volume of the treatment group at the beginning of administration))/(average tumor volume of the solvent control group after the administration-average tumor volume of the solvent control group at the beginning of the administration)]×100%. Statistical analysis was performed based on the tumor volume (RTV) on the 20th day, and SPSS software was used for analysis.

[2] = test system: human lung cancer EBC-1 xenograft tumor; experiment: In vivo drug efficacy, human lung cancer EBC-1 xenograft tumor in nude mice; set-up: species or system BALB/c nude mice; conditions: for Tumor volume: n = 6; for TGI (tumor growth inhibition rate) / TRTV/CRTV (relative tumor proliferation rate T/C): 25th day
Procedure: BALB/c nude mice, female, 6-8 weeks old, weighing about 18-20 grams, animals were raised in SPF-class animal rooms in IVC (independent air supply system, constant temperature and humidity) cages (3 per cage). All cages, bedding and water were disinfected before use. All animals had free access to standard certified commercial laboratory diets. A total of 36 mice purchased from Shanghai Lingchang Biotechnology Co., Ltd. were used for research. Each animal was inoculated with 0.1 mL (5×10^6 cells) of EBC-1 cells on the right back, when the average tumor volume reached 243 mm^3, the animals were randomly grouped and the administration was started. The test compound was orally administered daily, the dose of hydrochloride of compound 24 was 10 mg/kg, the two doses of hydrochloride of compound 25 were 10 mg/kg and 20 mg/kg, respectively, and the dose of hydrochloride of compound 29 was 10 mg/kg. The tumor diameter was measured with vernier calipers twice a week. The calculation formula of tumor volume was: V=0.5a×b^2, a and b represented the long diameter and short diameter of the tumor, respectively. The anti-tumor efficacy of the compound was evaluated by TGI (%) or the relative tumor proliferation rate T/C (%). Relative tumor proliferation rate T/C (%)=TRTV/CRTV×100% (TRTV: average RTV in the treatment group; CRTV: average RTV in the negative control group). The relative tumor volume (RTV) was calculated according to the results of tumor measurement, the calculation formula was RTV=Vt/V0, wherein V0 was the tumor volume measured at the time of the grouping administration (i.e. D0), Vt was the tumor volume at a certain measurement, and TRTV and CRTV were taken on the same day. TGI (%) reflected the tumor growth inhibition rate. TGI (%)=[(1−(average tumor volume of a certain treatment group after administration-average tumor volume of the treatment group at the beginning of administration))/(average tumor volume of the solvent control group after the administration-average tumor volume of the solvent control group at the beginning of the administration)]×100%. Statistical analysis was performed based on RTV data at the end of the experiment, and SPSS software was used for analysis.

[3] = 3 mg/kg oral daily, day 0, mean ± standard error
[4] = 3 mg/kg oral daily, day 2, mean ± standard error
[5] = 3 mg/kg oral daily, day 5, mean ± standard error
[6] = 3 mg/kg oral daily, day 9, mean ± standard error
[7] = 3 mg/kg oral daily, day 12, mean ± standard error
[8] = 3 mg/kg oral daily, day 16, mean ± standard error
[9] = 3 mg/kg oral daily, day 19, mean ± standard error
[10] = 3 mg/kg oral daily, day 20, mean ± standard error

CC(C)(O)CN1CCC(COc2cnc(-c3cccc(Cn4c(=O)ccn5c6cc(C#N)ccc6nc45)c3)nc2)CC1 [Hydrochloride of compound 39]
TGI (tumor growth inhibition rate) ([1]; 3 mg/kg oral daily): 106.7%
TRTV/CRTV (relative tumor proliferation rate T/C) ([1]; 3 mg/kg oral daily): 0.7%
Tumor volume [1, 3]: 160 ± 6 mm^3
Tumor volume [1, 4]: 159 ± 8 mm^3
Tumor volume [1, 5]: 125 ± 4 mm^3
Tumor volume [1, 6]: 92 ± 3 mm^3
Tumor volume [1, 7]: 82 ± 5 mm^3
Tumor volume [1, 8]: 59 ± 7 mm^3
Tumor volume [1, 9]: 26 ± 4 mm^3
Tumor volume [1, 10]: 16 ± 3 mm^3
Tumor volume ([1]; 3 mg/kg oral daily, day 20, mean ± standard error, listed as hydrochloride of compound 39): 16 mm^3

CC(C)N1CCC(COc2cnc(-c3cccc(Cn4c(=O)ccn5c6cc(C#N)ccc6nc45)c3)nc2)CC1 [Hydrochloride of compound 25]
TGI (tumor growth inhibition rate) ([1]; 3 mg/kg oral daily): 96.6%
TRTV/CRTV (relative tumor proliferation rate T/C) ([1]; 3 mg/kg oral daily): 10.2%
Tumor volume [1, 3]: 160 ± 7 mm^3
Tumor volume [1, 4]: 179 ± 8 mm^3
Tumor volume [1, 5]: 173 ± 12 mm^3
Tumor volume [1, 6]: 151 ± 7 mm^3
Tumor volume [1, 7]: 144 ± 6 mm^3
Tumor volume [1, 8]: 139 ± 20 mm^3
Tumor volume [1, 9]: 221 ± 49 mm^3
Tumor volume [1, 10]: 234 ± 79 mm^3
Tumor volume ([1]; 3 mg/kg oral daily, day 20, mean ± standard error, listed as hydrochloride of compound 25): 234 mm^3
TGI (tumor growth inhibition rate) ([1]; 6 mg/kg oral daily): 106.7%
TRTV/CRTV (relative tumor proliferation rate T/C) ([1]; 6 mg/kg oral daily): 0.7%
Tumor volume ([1]; 6 mg/kg oral daily, day 0, mean ± standard error): 160 ± 7 mm^3
Tumor volume ([1]; 6 mg/kg oral daily, day 2, mean ± standard error): 146 ± 6 mm^3
Tumor volume ([1]; 6 mg/kg oral daily, day 5, mean ± standard error): 118 ± 6 mm^3
Tumor volume ([1]; 6 mg/kg oral daily, day 9, mean ± standard error): 89 ± 9 mm^3
Tumor volume ([1]; 6 mg/kg oral daily, day 12, mean ± standard error): 83 ± 9 mm^3
Tumor volume ([1]; 6 mg/kg oral daily, day 16, mean ± standard error): 55 ± 6 mm^3
Tumor volume ([1]; 6 mg/kg oral daily, day 19, mean ± standard error): 30 ± 4 mm^3
Tumor volume ([1]; 6 mg/kg oral daily, day 20, mean ± standard error): 17 ± 4 mm^3
Tumor volume ([1]; 6 mg/kg oral daily, day 20, mean ± standard error, listed as hydrochloride of compound 25): 17 mm^3
Tumor volume ([2]; 10 mg/kg oral daily (stopped after 15 days), day 18, mean ± standard error): 34 ± 4 mm^3
Tumor volume ([2]; 10 mg/kg oral daily (stopped after 15 days), day 21, mean ± standard error): 44 ± 6 mm^3
Tumor volume ([2]; 10 mg/kg oral daily (stopped after 15 days), day 25, mean ± standard error): 83 ± 11 mm^3
Tumor volume ([2]; 10 mg/kg oral daily (stopped after 15 days), day 25, mean ± standard error, listed as hydrochloride of compound 25): 83 mm^3
Tumor volume ([2]; 10 mg/kg oral daily (stopped after 15 days), day 27, mean ± standard error): 120 ± 25 mm^3
TGI (tumor growth inhibition rate) ([2]; 10 mg/kg oral daily): 108.9%
TRTV/CRTV (relative tumor proliferation rate T/C) ([2]; 10 mg/kg oral daily): 4.3%
Tumor volume ([2]; 10 mg/kg oral daily, day 0, mean ± standard error): 243 ± 21 mm^3
Tumor volume ([2]; 10 mg/kg oral daily, day 4, mean ± standard error): 247 ± 20 mm^3
Tumor volume ([2]; 10 mg/kg oral daily, day 7, mean ± standard error): 162 ± 13 mm^3
Tumor volume ([2]; 10 mg/kg oral daily, day 11, mean ± standard error): 67 ± 9 mm^3
Tumor volume ([2]; 10 mg/kg oral daily, day 14, mean ± standard error): 46 ± 5 mm^3
Tumor volume ([2]; 20 mg/kg oral daily (stopped after 15 days), day 18, mean ± standard error): 4 ± 0 mm^3
Tumor volume ([2]; 20 mg/kg oral daily (stopped after 15 days), day 21, mean ± standard error): 4 ± 0 mm^3
Tumor volume ([2]; 20 mg/kg oral daily (stopped after 15 days), day 25, mean ± standard error): 4 ± 0 mm^3
Tumor volume ([2]; 20 mg/kg oral daily (stopped after 15 days), day 25, mean ± standard error, listed as hydrochloride of compound 25): 4 mm^3
Tumor volume ([2]; 20 mg/kg oral daily (stopped after 15 days), day 27, mean ± standard error): 2 ± 1 mm^3
TGI (tumor growth inhibition rate) ([2]; 20 mg/kg oral daily): 113.4%
TRTV/CRTV (relative tumor proliferation rate T/C) ([2]; 20 mg/kg oral daily): 0.2%
Tumor volume ([2]; 20 mg/kg oral daily, day 0, mean ± standard error): 244 ± 22 mm^3
Tumor volume ([2]; 20 mg/kg oral daily, day 4, mean ± standard error): 174 ± 12 mm^3
Tumor volume ([2]; 20 mg/kg oral daily, day 7, mean ± standard error): 100 ± 8 mm^3
Tumor volume ([2]; 20 mg/kg oral daily, day 11, mean ± standard error): 32 ± 3 mm^3
Tumor volume ([2]; 20 mg/kg oral daily, day 14, mean ± standard error): 12 ± 3 mm^3

— patent publication US12122780B2, “Pyrimidinyl group-containing tricyclic compound serving as c-Met inhibitor” (JIANGSU AOSAIKANG PHARMACEUTICAL CO., LTD., priority 2019, dated 2024)
